Measured values as given in ChEMBL document CHEMBL1121631, “Quantitative structure-activity relationships by distance geometry: systematic analysis of dihydrofolate reductase inhibitors” (J Med Chem, 1980).

system: Dihydrofolate reductase (Enterococcus faecium)

Delta G	Structure (SMILES)
-9 kcal	Nc1nc(O)c2c(S(=O)(=O)c3ccc4ccccc4c3)cccc2n1
-6.9 kcal	Nc1nc(N)c2c([S+]([O-])c3ccc4ccccc4c3)cccc2n1 (stereo not drawn)
-6.5 kcal	Nc1nc(N)c2c(S(=O)(=O)c3ccc4ccccc4c3)cccc2n1
-11.9 kcal	Nc1nc(N)c2c(CCc3ccc4ccccc4c3)cccc2n1
-6.2 kcal	Oc1nc(S)nc2ccc(Sc3ccc4ccccc4c3)cc12
-6.9 kcal	Nc1nc(O)nc2ccc(Sc3ccc4ccccc4c3)cc12
-12.8 kcal	Nc1nc(N)c2cc([S+]([O-])c3ccc4ccccc4c3)ccc2n1 (stereo not drawn)
-8 kcal	Nc1nc(S)c2cc(S(=O)(=O)c3ccc4ccccc4c3)ccc2n1
-7.4 kcal	Nc1nc(O)c2c(Sc3ccc4ccccc4c3)cccc2n1
-6.9 kcal	O=c1[nH]c(=S)c2cc(Sc3ccc4ccccc4c3)ccc2[nH]1
-9.1 kcal	Nc1nc(O)c2cc(Sc3ccc(Cl)c(Cl)c3)ccc2n1
-5.8 kcal	Nc1ncnc2ccc(S(=O)(=O)c3ccc4ccccc4c3)cc12
-6.5 kcal	Nc1ncnc2ccc(Sc3ccc4ccccc4c3)cc12
-9.6 kcal	Nc1nc(O)c2cc(S(=O)(=O)c3ccc4ccccc4c3)ccc2n1
-7.4 kcal	Nc1nc(S)nc2ccc(Sc3ccc4ccccc4c3)cc12
-8.2 kcal	Nc1nc(O)c2cc([S+]([O-])c3ccc4ccccc4c3)ccc2n1 (stereo not drawn)
-6.9 kcal	O=c1[nH]c(=O)c2cc(Sc3ccc4ccccc4c3)ccc2[nH]1
-7.2 kcal	Nc1ncnc2ccc([S+]([O-])c3ccc4ccccc4c3)cc12 (stereo not drawn)
-9.3 kcal	Nc1nc(S)c2cc(Sc3ccc4ccccc4c3)ccc2n1
-12.4 kcal	Nc1nc(N)c2cc(S(=O)(=O)c3ccc4ccccc4c3)ccc2n1
-10.9 kcal	Nc1nc(N)c2c(Sc3ccc4ccccc4c3)cccc2n1
-10.2 kcal	Nc1nc(O)c2cc(Sc3ccc4ccccc4c3)ccc2n1
-11.1 kcal	Nc1nc(N)c2c(/C=C\c3ccc4ccccc4c3)cccc2n1
-6 kcal	Sc1nc(S)c2cc(Sc3ccc4ccccc4c3)ccc2n1
-10.7 kcal	Nc1nc(N)c2c(/C=C/c3ccc4ccccc4c3)cccc2n1

More lines, now with the values behind:

Structure (SMILES)	Delta G
Cc1c(CNc2ccc(C(=O)NC(CC(=O)O)C(=O)O)cc2)ccc2nc(N)nc(N)c12 (stereo not drawn)	-12.7 kcal
CCOC(=O)c1ccc(CNc2ccc3nc(N)nc(N)c3c2C)cc1	-13.1 kcal
Nc1nc(N)c2c(S(=O)(=O)c3ccc(Cl)c(Cl)c3)cccc2n1	-9 kcal
Cc1c(NCc2ccc(C(=O)O)cc2)ccc2nc(N)nc(O)c12	-6.5 kcal
CCOC(=O)c1ccc(NCc2ccc3nc(N)nc(N)c3c2)cc1	-11.4 kcal
Nc1nc(N)c2cc(Sc3ccc(Cl)c(Cl)c3)ccc2n1	-12.2 kcal
CCOC(=O)c1ccc(CNc2ccc3nc(N)nc(N)c3c2)cc1	-11 kcal
Nc1nc(N)c2c(CSc3ccc(Cl)cc3)cccc2n1	-10.9 kcal
CCOC(=O)c1ccc(CNc2ccc3nc(N)nc(N)c3c2Cl)cc1	-12.2 kcal
Nc1nc(N)c2cc(Sc3cccc(C(F)(F)F)c3)ccc2n1	-13.4 kcal
Nc1nc(O)c2cc(S(=O)(=O)c3ccc(Cl)c(Cl)c3)ccc2n1	-8.2 kcal
Nc1nc(N)c2c(Sc3ccc(Cl)c(Cl)c3)cccc2n1	-9.9 kcal
Nc1nc(N)c2cc(CNc3ccc(C(=O)O)cc3)ccc2n1	-13 kcal
Nc1nc(N)c2cc(S(=O)(=O)c3ccc(Cl)c(Cl)c3)ccc2n1	-13.4 kcal
Cc1c(CNc2ccc(C(=O)O)cc2)ccc2nc(N)nc(N)c12	-11.8 kcal
Nc1nc(O)c2cc(CNc3ccc(C(=O)O)cc3)ccc2n1	-8.8 kcal
CCOC(=O)c1ccc(NCc2ccc3nc(N)nc(O)c3c2)cc1	-10.6 kcal
Nc1nc(N)c2c(Cl)c(CNc3ccc(C(=O)O)cc3)ccc2n1	-12.3 kcal
CCOC(=O)c1ccc(NCc2ccc3nc(N)nc(N)c3c2Cl)cc1	-12.8 kcal
Nc1nc(O)c2cc(NCc3ccc(C(=O)O)cc3)ccc2n1	-7.2 kcal
CCOC(=O)c1ccc(CNc2ccc3nc(N)nc(O)c3c2)cc1	-8.6 kcal
CCOC(=O)c1ccc(CNc2ccc3nc(N)nc(O)c3c2Cl)cc1	-9.3 kcal
CCCCOC(=O)c1ccc(NCc2ccc3nc(N)nc(N)c3c2)cc1	-11.2 kcal
Nc1nc(N)c2c([S+]([O-])c3ccc(Cl)c(Cl)c3)cccc2n1 (stereo not drawn)	-7.3 kcal
CCCCOC(=O)c1ccc(NCc2ccc3nc(N)nc(N)c3c2Cl)cc1	-11.4 kcal
CCOC(=O)c1ccc(CNc2ccc3nc(N)nc(O)c3c2C)cc1	-7.1 kcal
CCOC(=O)c1ccc(NCc2ccc3nc(N)nc(N)c3c2C)cc1	-12.3 kcal
CCCCOC(=O)c1ccc(NCc2ccc3nc(N)nc(N)c3c2C)cc1	-12.1 kcal
